Biological target: Growth hormone secretagogue receptor type 1 (Homo sapiens, UniProt Q92847)
Assay: SUPPLEMENTARY: Agonist activity at GSHR by FLIPR assay. Same assay as CHEMBL941945
Format: functional

Sequence of Growth hormone secretagogue receptor type 1 (Q92847 whole entry): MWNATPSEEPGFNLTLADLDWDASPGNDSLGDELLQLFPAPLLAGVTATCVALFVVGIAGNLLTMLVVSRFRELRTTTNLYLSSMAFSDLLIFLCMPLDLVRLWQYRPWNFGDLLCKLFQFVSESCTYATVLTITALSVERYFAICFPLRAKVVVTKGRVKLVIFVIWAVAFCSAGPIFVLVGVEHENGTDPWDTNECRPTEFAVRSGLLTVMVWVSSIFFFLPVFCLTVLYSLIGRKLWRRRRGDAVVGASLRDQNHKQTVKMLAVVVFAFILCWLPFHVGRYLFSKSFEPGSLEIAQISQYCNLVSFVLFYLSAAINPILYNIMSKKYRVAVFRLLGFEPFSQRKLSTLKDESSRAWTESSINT

Structure (SMILES)	EC50 [nM]
COc1ccc(N2CCN[C@H](C)C2)cc1NS(=O)(=O)c1ccc(-c2cccs2)cc1	31.6
COc1ccc(NS(=O)(=O)c2ccc(-c3ccccc3C)s2)cc1N1C[C@@H](C)N[C@@H](C)C1	50.1
C[C@@H]1CN(c2cccc(NS(=O)(=O)c3ccc(-n4cccn4)cc3)c2)C[C@H](C)N1	25.1
COc1ccc(N2C[C@@H](C)N[C@@H](C)C2)cc1NS(=O)(=O)c1ccc(-c2ccc(Cl)s2)cc1	12.6
COc1ccc(N2C[C@@H](C)N[C@@H](C)C2)cc1NS(=O)(=O)c1ccc(-c2cccc(C)n2)c(F)c1	79.4
COc1ccc(NS(=O)(=O)c2ccc(-c3ccc(F)cc3)s2)cc1N1C[C@@H](C)N[C@@H](C)C1	100
COc1cc(Br)ccc1S(=O)(=O)Nc1cc(N2C[C@@H](C)N[C@@H](C)C2)ccc1F	100
COc1ccc(N2CCN[C@@H](C)C2)cc1NS(=O)(=O)c1ccc(-c2cccs2)cc1	158
COc1ccc(N2C[C@@H](C)N[C@@H](C)C2)cc1NS(=O)(=O)c1ccc(-c2ncccn2)cc1	12.6
COc1ccc(Oc2cccc(S(=O)(=O)Nc3cc(N4C[C@@H](C)N[C@@H](C)C4)ccc3OC)c2)cc1	100
COc1ccc(NS(=O)(=O)c2ccc(-c3cccc(C)n3)cc2)cc1N1C[C@@H](C)N[C@@H](C)C1	15.8
COc1ccc(NS(=O)(=O)c2ccc(-c3ccc(F)cc3)cc2)cc1N1C[C@@H](C)N[C@@H](C)C1	20
COc1ccc(NS(=O)(=O)c2sc3ccc(Cl)cc3c2C)cc1N1C[C@@H](C)N[C@@H](C)C1	31.6
COc1ccc(NS(=O)(=O)c2ccc(Br)cc2C)cc1N1C[C@@H](C)N[C@@H](C)C1	39.8
COc1ccc(N2C[C@@H](C)N[C@@H](C)C2)cc1NS(=O)(=O)c1ccc(-c2cccc(F)c2)s1	31.6
COc1ccc(N2C[C@@H](C)N[C@@H](C)C2)cc1NS(=O)(=O)c1ccc(Cl)c(Cl)c1	50.1
COc1ccc(N2C[C@@H](C)N[C@@H](C)C2)nc1NS(=O)(=O)c1ccc(-c2ccoc2)cc1Cl	25.1
COc1ccc(N2C[C@@H](C)N[C@@H](C)C2)cc1NS(=O)(=O)c1ccc(-c2cnccn2)cc1	31.6
COc1ccc(N2C[C@@H](C)N[C@@H](C)C2)cc1NS(=O)(=O)c1ccc(-c2ccc(C)s2)s1	25.1
COc1ccc(N2C[C@@H](C)N[C@@H](C)C2)cc1NS(=O)(=O)c1ccc(-c2nccs2)cc1	12.6
C[C@@H]1CN(c2ccc(Cl)c(NS(=O)(=O)c3ccc(-c4ccccc4F)s3)c2)C[C@H](C)N1	10
COc1ccc(N2C[C@@H](C)N[C@@H](C)C2)cc1NS(=O)(=O)c1cc(C)c(-c2cccc(C)n2)s1	12.6
COc1ccc(N2C[C@@H](C)N[C@@H](C)C2)cc1NS(=O)(=O)c1ccc(-c2ccc(C)cc2)s1	31.6
COc1ccc(NS(=O)(=O)c2ccc(Oc3ccccc3)cc2)cc1N1C[C@@H](C)N[C@@H](C)C1	126
COc1ccc(NS(=O)(=O)c2ccc(N3CCCC3=O)cc2)cc1N1C[C@@H](C)N[C@@H](C)C1	79.4

Structure (SMILES)	EC50 [nM]
Cc1ccc(N2C[C@@H](C)N[C@@H](C)C2)cc1NS(=O)(=O)c1cccc2ccccc12	20
C[C@@H]1CN(c2cc(NS(=O)(=O)c3ccc(-c4cccs4)cc3)ccc2C#N)C[C@H](C)N1	100
COc1ccc(NS(=O)(=O)c2ccc(-c3ccoc3)s2)cc1N1C[C@@H](C)N[C@@H](C)C1	12.6
COc1ccc(N2C[C@@H](C)N[C@@H](C)C2)cc1NS(=O)(=O)c1ccc(-c2ccccc2C)s1	25.1
COc1ccc(N2C[C@@H](C)N[C@@H](C)C2)cc1NS(=O)(=O)c1ccc(Br)s1	126
C[C@@H]1CN(c2ccc(O)c(NS(=O)(=O)c3ccc(-c4ccco4)cc3)c2)C[C@H](C)N1	15.8
COc1ccc(N2C[C@@H](C)N[C@@H](C)C2)cc1NS(=O)(=O)c1cc2cc(Cl)ccc2s1	25.1
COc1ccc(N2C[C@@H](C)N[C@@H](C)C2)cc1NS(=O)(=O)c1cccc2cccnc12	50.1
COc1ccc(N2C[C@@H](C)N[C@@H](C)C2)cc1NS(=O)(=O)c1ccc(-c2csnn2)s1	25.1
C[C@@H]1CN(c2ccc(F)c(NS(=O)(=O)c3ccc(-c4ccccc4)cc3)c2)C[C@H](C)N1	31.6
COc1ccc(N2C[C@@H](C)N[C@@H](C)C2)cc1NS(=O)(=O)c1ccc(-c2cnccc2OC)s1	31.6
C[C@@H]1CN(c2cccc(NS(=O)(=O)c3cc4ccccc4s3)c2)C[C@H](C)N1	31.6
C[C@@H]1CN(c2cccc(NS(=O)(=O)c3cccc(Cl)c3Cl)c2)C[C@H](C)N1	20
COc1ccc(N2C[C@@H](C)N[C@@H](C)C2)cc1NS(=O)(=O)c1ccc(-c2cccn2C)cc1	20
C[C@@H]1CN(c2cccc(NS(=O)(=O)c3ccc(-c4ccc(Cl)s4)cc3)c2)C[C@H](C)N1	25.1
COc1ccc(N2C[C@@H](C)N[C@@H](C)C2)cc1NS(=O)(=O)c1ccc(-c2cccc(C)n2)s1	10
C[C@@H]1CN(c2ccc(O)c(NS(=O)(=O)c3ccc(-c4ccccn4)s3)c2)C[C@H](C)N1	25.1
C[C@@H]1CN(c2cccc(NS(=O)(=O)c3cccc4ccccc34)c2)C[C@H](C)N1	10
COc1cc(-c2ccco2)ccc1S(=O)(=O)Nc1cccc(N2C[C@@H](C)N[C@@H](C)C2)c1	20
COc1ccc(N2C[C@@H](C)N[C@@H](C)C2)cc1NS(=O)(=O)c1ccc(-c2cnco2)cc1	50.1
COc1ccc(N2C[C@@H](C)N[C@@H](C)C2)cc1NS(=O)(=O)c1ccc(-c2ccc(F)cc2F)cc1	100
COc1ccc(N2C[C@@H](C)N[C@@H](C)C2)cc1NS(=O)(=O)c1ccc(-c2cccs2)nc1	50.1
COc1ccc(N2C[C@@H](C)N[C@@H](C)C2)cc1NS(=O)(=O)c1ccc(-c2cccc(F)c2F)cc1	31.6
COc1ccc(N2C[C@@H](C)N[C@@H](C)C2)cc1NS(=O)(=O)c1sc2ccc(F)cc2c1C	31.6
COc1ccc(N2C[C@@H](C)N[C@@H](C)C2)cc1NS(=O)(=O)c1ccc2c(c1)CCC(C)(C)O2	31.6

Continued by falling EC50, values first:

EC50 [nM]	Structure (SMILES)
10	COc1ccc(N2C[C@@H](C)N[C@@H](C)C2)cc1NS(=O)(=O)c1ccc(-c2cc(C)cs2)nc1
10	C[C@@H]1CN(c2ccc(F)c(NS(=O)(=O)c3ccc(-c4cccs4)c(F)c3)c2)C[C@H](C)N1
7.94	C[C@@H]1CN(c2ccc(F)c(NS(=O)(=O)c3ccc(-c4cccs4)cc3Cl)c2)C[C@H](C)N1
7.94	COc1ccc(N2C[C@@H](C)N[C@@H](C)C2)cc1NS(=O)(=O)c1ccc(-c2cccc(C)n2)cc1F
7.94	COc1ccc(N2C[C@@H](C)N[C@@H](C)C2)cc1NS(=O)(=O)c1ccc(-c2ccsc2)c(C)c1
6.31	COc1cc(-c2cc(C)cs2)ccc1S(=O)(=O)Nc1cccc(N2C[C@@H](C)N[C@@H](C)C2)c1
6.31	COCc1cccc(-c2ccc(S(=O)(=O)Nc3cc(N4C[C@@H](C)N[C@@H](C)C4)ccc3OC)cc2)c1
6.31	C[C@@H]1CN(c2ccc(O)c(NS(=O)(=O)c3ccc(-c4ccccc4F)s3)c2)C[C@H](C)N1
6.31	C[C@@H]1CN(c2cccc(NS(=O)(=O)c3ccc(-c4cccs4)cc3)c2)C[C@H](C)N1
6.31	COc1ccc(N2C[C@@H](C)N[C@@H](C)C2)cc1NS(=O)(=O)c1ccc(-c2ccc(C)s2)c(C)c1
5.01	COc1ccc(N2C[C@@H](C)N[C@@H](C)C2)cc1NS(=O)(=O)c1ccc(-c2ccsc2)s1
5.01	C[C@@H]1CN(c2ccc(F)c(NS(=O)(=O)c3ccc(-c4cccs4)cc3)c2)C[C@H](C)N1
5.01	Cc1ccc(N2C[C@@H](C)N[C@@H](C)C2)cc1NS(=O)(=O)c1ccc2ccccc2c1
5.01	Cc1ccc(-c2ccc(S(=O)(=O)Nc3cc(N4C[C@@H](C)N[C@@H](C)C4)ccc3O)cc2)o1
5.01	COc1ccc(N2C[C@@H](C)N[C@@H](C)C2)cc1NS(=O)(=O)c1ccc(-c2ccsc2)cc1
3.98	Cc1ccc(N2C[C@@H](C)N[C@@H](C)C2)cc1NS(=O)(=O)c1ccc(-c2cccs2)cc1
3.98	COc1ccc(N2C[C@@H](C)N[C@@H](C)C2)cc1NS(=O)(=O)c1ccc(-c2csc(C)c2)cc1

EC50 [nM]	Structure (SMILES)
3.98	COc1ccc(N2C[C@@H](C)N[C@@H](C)C2)cc1NS(=O)(=O)c1ccc(-c2ccc(C)s2)c(F)c1
3.98	COc1ccc(NS(=O)(=O)c2ccc(-c3cccc(C)c3)s2)cc1N1C[C@@H](C)N[C@@H](C)C1
3.16	COc1ccc(N2C[C@@H](C)N[C@@H](C)C2)cc1NS(=O)(=O)c1ccc(-c2ccsc2)cc1Cl
3.16	Cc1ccc(-c2ccc(S(=O)(=O)Nc3cc(N4C[C@@H](C)N[C@@H](C)C4)ccc3O)cc2F)o1
3.16	COc1ccc(NS(=O)(=O)c2ccc(-c3cccs3)c(F)c2)cc1N1C[C@@H](C)N[C@@H](C)C1
3.16	COc1ccc(N2C[C@@H](C)N[C@@H](C)C2)cc1NS(=O)(=O)c1ccc(-c2ccc(C)o2)cn1
2.51	COc1ccc(NS(=O)(=O)c2ccc(-c3cccs3)cc2F)cc1N1C[C@@H](C)N[C@@H](C)C1
2.51	COc1ccc(N2C[C@@H](C)N[C@@H](C)C2)cc1NS(=O)(=O)c1ccc(-c2ccccc2Cl)s1
2.51	COc1ccc(NS(=O)(=O)c2ccc(-c3ccsc3)cc2)cc1N1C[C@@H](C)N[C@@H](C)C1
2	COc1ccc(N2C[C@@H](C)N[C@@H](C)C2)cc1NS(=O)(=O)c1ccc(-c2ccco2)cc1C
2	COc1ccc(N2C[C@@H](C)N[C@@H](C)C2)cc1NS(=O)(=O)c1ccc(-c2cc(C)cs2)s1
1.58	COc1ccc(N2C[C@@H](C)N[C@@H](C)C2)cc1NS(=O)(=O)c1ccc2c(Cl)cccc2c1
1.58	COc1ccc(NS(=O)(=O)c2ccc(-c3ccsc3)s2)cc1N1C[C@@H](C)N[C@@H](C)C1
1	COc1ccc(NS(=O)(=O)c2ccc(-c3cccs3)cc2C)cc1N1C[C@@H](C)N[C@@H](C)C1
0.794	COc1ccc(NS(=O)(=O)c2ccc(-c3cc(C)cs3)s2)cc1N1C[C@@H](C)N[C@@H](C)C1
0.501	COc1ccc(N2C[C@@H](C)N[C@@H](C)C2)cc1NS(=O)(=O)c1ccc(-c2ccco2)cc1Cl
0.316	COc1ccc(N2C[C@@H](C)N[C@@H](C)C2)cc1NS(=O)(=O)c1ccc(-c2ccc(C)o2)cc1Cl
